Laboratory results reported in PubChem BioAssay (NCI).
Where “and” joins values, the source holds several entries; their conditions need not be identical. Equal entries are not always repeated.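 Where inhibition never reached the appropriate level, the endpoint shown equals the highest concentration tested. Otherwise, values were interpolated linearly from a five-concentration, 48-hour dose response in 96-well plates. GI50 marks 50% less growth. At the TGI there is no net growth.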

Key:
Test in all cases: DTP human tumour cell line panel, 48 h
LOX IMVI melanoma = test system: LOX IMVI melanoma
SR leukemia = test system: SR leukemia
UACC-62 melanoma = test system: UACC-62 melanoma
SK-MEL-28 melanoma = test system: SK-MEL-28 melanoma
ACHN renal = test system: ACHN renal
OVCAR-4 ovarian = test system: OVCAR-4 ovarian
M14 melanoma = test system: M14 melanoma
PC-3 prostate = test system: PC-3 prostate
SK-MEL-5 melanoma = test system: SK-MEL-5 melanoma
A498 renal = test system: A498 renal

Row | Compound | GI50 (LOX IMVI melanoma) [µM] | TGI (LOX IMVI melanoma) | GI50 (SR leukemia) [µM] | TGI (SR leukemia) | GI50 (UACC-62 melanoma) [µM] | TGI (UACC-62 melanoma) | GI50 (SK-MEL-28 melanoma) [µM] | TGI (SK-MEL-28 melanoma) | GI50 (ACHN renal) [µM] | TGI (ACHN renal) | GI50 (OVCAR-4 ovarian) [µM] | TGI (OVCAR-4 ovarian) | GI50 (M14 melanoma) [µM] | TGI (M14 melanoma) | GI50 (PC-3 prostate) [µM] | TGI (PC-3 prostate) [µM] | GI50 (SK-MEL-5 melanoma) [µM] | TGI (SK-MEL-5 melanoma) | GI50 (A498 renal) [µM] | TGI (A498 renal) [µM]
1 | COc1cc(C(=O)Nc2cc3c(cc2Oc2cc(C)cc(C)c2)C(=O)N(C)[C@@H](CC(=O)N(C)O)C(=O)N3)c(Br)c(OC)c1OC | < 0.00333 | < 0.00333 µM | < 0.00333 | 0.00904 µM | < 0.00333 | < 0.00333 µM | < 0.00333 | < 0.00333 µM | 0.0111 | 0.374 µM | < 0.00333 | < 0.00333 µM | < 0.00333 | 0.0101 µM | < 0.00333 | 0.00358 | < 0.00333 | 0.0116 µM | < 0.00333 | 0.00573
2 | CCC[n+]1cc2cc(OC)c(OC)cc2c2c1-c1cc3c(cc1C2)OCO3 | 8.25 | > 62.2 µM | 2.18 | 26.2 µM | 2.06 | 5.77 µM | 3.03 | 10.6 µM | 9.45 | 36.7 µM | 4.84 | 19.2 µM | 7.64 | 22 µM | 4.7 | 20.7 | 2.09 | 7.11 µM | 17.6 | 50.9
3 | Cc1[nH]nc(C(=O)n2nc(N)c3ccccc32)c1[N+](=O)[O-] | > 39.5 | > 100 µM | 26.2 | > 100 µM | > 100 | > 100 µM | > 100 | > 100 µM | > 100 | > 100 µM | > 100 | > 100 µM | > 100 | > 100 µM | > 100 | > 100 | > 100 | > 100 µM | > 100 | > 100
4 | O=C1C(c2ccccc2)=[N+]([O-])c2ccccc21 |  | 14.2 µM |  | 23.5 µM |  | 29.5 µM |  | 33.2 µM |  | 33.6 µM |  | 15.3 µM |  | 27 µM |  | 27.3 |  | 23.3 µM |  | 34
5 | Cc1nc2sccn2c1-c1csc(Nc2cccc(Cl)c2C)n1 | 6.5 | 20.6 µM | 3.46 | 53.1 µM | 3.93 | 19.8 µM | 5.67 | 44.1 µM | 6.84 | > 100 µM | 3.05 | > 100 µM | 5.04 | 28.5 µM | 3.72 | 87.3 | 1.52 | 3.92 µM | 1.45 | 17.5
6 | CCCOc1ccc2nc(NC(=O)OC)[nH]c2c1 | 0.778 | > 100 µM | 0.0319 | > 100 µM | 0.215 | > 100 µM | 0.285 | > 100 µM | 1.2 | > 100 µM | 0.6 | > 100 µM | 0.14 | > 100 µM | 0.269 | > 100 | 0.0796 | 1.73 µM | 0.162 | 1.46
7 | CN1C(=O)N(C)C2C1NN=c1s/c(=C\c3ccc(F)cc3)c(=O)n12 (stereo not drawn) | 6.01 | > 100 µM | 0.374 | 20 µM | 3.61 | > 100 µM | 7.31 | > 100 µM | 4.39 | > 100 µM | 3.05 | > 100 µM | 2.24 | > 100 µM | 2.33 | > 100 | 0.995 | 12 µM | 1.39 | 6.77
8 | Nc1ccc(C(=O)CC(N)C(=O)O)cc1O (stereo not drawn) |  | > 100 µM |  | > 100 µM |  | > 100 µM |  | > 100 µM |  | > 100 µM |  | > 100 µM |  | > 100 µM |  | > 100 |  | > 100 µM |  | > 100
9 | COc1ccc(-c2oc3c(OC)c(OC)c(OC)c(OC)c3c(=O)c2OC)cc1OC |  | > 100 µM |  | 79.9 µM |  | > 100 µM |  | > 100 µM |  | > 100 µM |  | > 100 µM |  | > 100 µM |  | > 100 |  | 66.3 µM |  | > 100
10 | COc1ccc(Cn2c3c(cc(OS(=O)(=O)C(F)(F)F)c2=O)Cc2ccccc2-3)cc1 | 6.82 | 50 µM and > 100 µM |  | 50 µM and 20.1 µM | 5.39 | 50 µM and 32.1 µM | 22.8 | 50 µM and > 100 µM | 5.25 | 50 µM and > 100 µM | 9.56 | 50 µM and > 100 µM | 11.4 | 15.4 µM and 30.8 µM | 26.7 | > 100 | 7.3 | 26 µM and 43.9 µM | > 100 | > 100
11 | COc1ccccc1/C=C/C(=O)c1ccccc1 | 2.06 | 5.07 µM | 1.77 |  | 5.17 | 18.4 µM | 16.6 | 30.8 µM | 5.04 | 15.2 µM | 9.33 | 25.9 µM | 12.2 | 27 µM | 5.65 | 28 | 12.7 | 25.7 µM | 16.3 | 31
